From publication PMC8864676 (Organic & biomolecular chemistry, 2022)
Values joined by “and” are separate entries in the source; they are usually repeats but may differ in a detail not shown here. Equal entries are not always repeated.

Columns and labels:
[1] = target: T1, PutA86–630 (PRODH domain of proline utilization A) (Escherichia coli, UniProt P09546); assay: Initial single-point screening of compounds for inhibition of PRODH activity; type: biochemical; conditions: for inhibition at 5000 µM: read-out: inhibition in the single-point assay; for inhibition in the single-point assay (in words): 13, 15, 16 compared with 1
T1 sequence (P09546 86-630): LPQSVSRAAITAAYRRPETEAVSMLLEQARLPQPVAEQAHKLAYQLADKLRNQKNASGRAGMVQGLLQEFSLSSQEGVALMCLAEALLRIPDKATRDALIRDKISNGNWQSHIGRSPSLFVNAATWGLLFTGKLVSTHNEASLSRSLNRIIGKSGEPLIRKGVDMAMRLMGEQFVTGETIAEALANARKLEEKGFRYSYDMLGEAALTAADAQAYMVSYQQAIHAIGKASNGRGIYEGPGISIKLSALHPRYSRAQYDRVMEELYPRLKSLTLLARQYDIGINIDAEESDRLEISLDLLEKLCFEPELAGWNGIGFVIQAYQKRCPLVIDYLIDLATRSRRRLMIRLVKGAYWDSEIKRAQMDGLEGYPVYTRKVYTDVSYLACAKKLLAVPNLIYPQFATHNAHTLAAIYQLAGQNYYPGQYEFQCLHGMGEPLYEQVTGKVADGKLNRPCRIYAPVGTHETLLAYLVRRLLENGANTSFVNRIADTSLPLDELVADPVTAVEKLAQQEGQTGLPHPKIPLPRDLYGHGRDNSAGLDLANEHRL

[2] = target: T1, PutA86–630 (PRODH domain of proline utilization A); type: biochemical; conditions: for kcat: kcat of PutA86–630 from the global fit of the data set with this inhibitor; for ΔΔG, loss of binding energy relative to 1 / fold change in Ki relative to 1: chemical double mutant cycle; for fold change in Ki relative to 1: from Ki values
PRODH = conditions: cited from earlier work
[3] = 5 mM inhibitor, 200 mM L-proline

Compound: O=C(O)C1CCC1 [Compound 3, cyclobutanecarboxylic acid]
- reduction of enzyme activity relative to the no-inhibitor control [1, 3]: over 2 fold
- inhibition at 5000 µM [1]: > 50%
- ΔΔG, improvement of affinity relative to 16 ([2]; cyclopentane of 16 decreased to cyclobutane, calculated from Ki values): 0.71 kcal/mol and 0.7 kcal/mol
- kcat [2]: 1.47 ± 0.05 s⁻¹
- ΔΔG, loss of binding energy relative to 18 ([2]; removing the O heteroatom from 18, calculated from Ki values): about 0.2 kcal/mol

Compound: O=C(O)C1CC1 [Compound 4, cyclopropanecarboxylic acid]
- kcat [2]: 1.20 ± 0.03 s⁻¹
- ΔΔG, decrease of affinity relative to 3 ([2]; ring size decreased from cyclobutane to cyclopropane, calculated from Ki values): 0.3 kcal/mol

Compound: O=C1CC(C(=O)O)C1 [Compound 10, 3-oxocyclobutanecarboxylic acid]
- inhibition in the single-point assay (in words) [1, 3]: very little inhibition

Compound: NC(=O)[C@@H]1CCCO1 [Compound 13, (S)-(−)-tetrahydrofuran-2-carboxamide]
- inhibition in the single-point assay (in words) [1, 3]: decreases inhibition

Compound: O=C(O)C1CCCCO1 (centres unmarked) [Compound 15, tetrahydropyran-2-carboxylic acid]
- inhibition in the single-point assay (in words) [1, 3]: severely decreases inhibition

Compound: O=C(O)C1CCCC1 [Compound 16, cyclopentanecarboxylic acid]
- inhibition in the single-point assay (in words) [1, 3]: severely decreases inhibition
- ΔΔG, loss of binding energy relative to 1 ([2]; calculated from Ki values): ~2 kcal/mol
- fold change in Ki relative to 1 [2]: 20 fold
- kcat [2]: 1.35 ± 0.04 s⁻¹

Compound: CCC(=O)C(=O)O [Compound 17, 2-oxobutyric acid]
- inhibition at 5000 µM [1]: > 50%
- kcat [2]: 1.14 ± 0.02 s⁻¹

Compound: O=C(O)[C@@H]1CCO1 [Compound 18, (2S)-oxetane-2-carboxylic acid]
- reduction of enzyme activity relative to the no-inhibitor control [1, 3]: over 2 fold
- inhibition at 5000 µM [1]: > 50%
- ΔΔG, loss of binding energy relative to 1 ([2]; calculated from Ki values): 0.95 kcal/mol
- fold change in Ki relative to 1 [2]: 5 fold
- kcat [2]: 1.42 ± 0.04 s⁻¹

Compound: C[C@H](O)C(=O)O [L-lactic acid]
- Ki (PRODH): ~1 mM

Compound: CC(=O)O [acetic acid]
- Ki (PRODH): ~30 mM

Compound: (S)-(−)-tetrahydro-2-furoic acid [Compound 1, reference compound]
- enzyme activity relative to the no-inhibitor control [1, 3]: 12%
- kcat [2]: 1.16 ± 0.03 s⁻¹
- Ki (PRODH): 0.2 to 1 mM
